According to patent US12594276B2, “Inhibitors of human immunodeficiency virus replication” (ViiV Healthcare UK (No.5) Limited, priority 2024, dated 2026):

Legend:
[1] = Compound cytotoxicity, XTT-based colorimetric assay; type: cell-based; settings: human; uninfected MT2 cells, day 4, XTT; read-out: CC50
Method in brief: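 Cells seeded as for the antiviral assay but left uninfected (MT2). Compound exposure continued to day 4. XTT reagent added and colour read. CC50 calculated.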

[2] = tested on: recombinant NL4-3 virus (nef section replaced with Renilla luciferase gene) in MT-2 cells; test: HIV cell culture assay (antiviral activity, luciferase readout); type: cell-based; settings: Renilla, NL43, MT-2 cells infected for 4-5 days with recombinant NL4-3 Renilla luciferase virus
Method in brief: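 Reporter virus is produced in 293T cells and its titer set in MT-2 cells by luciferase activity. MT-2 cells are then infected in the presence of serially diluted compound for 4-5 days. Luciferase is quantified and EC50 fitted to the median effect equation.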

SMILES | CC50 at 4 days [1] | EC50 [2]
COCCCn1nc(NS(C)(=O)=O)c2c(Cl)ccc(-n3c([C@H](Cc4cc(F)cc(F)c4)NC(=O)Cn4nc(C(F)F)c5c4C(F)(F)[C@@H]4C[C@H]54)nc4nc(C5CCC(F)(F)CC5)cc(CN5CC(F)(F)C5)c4c3=O)c21 (atropisomer, axis not shown; (P)) [Example 538, N-[(1S)-1-[(3P)-3-[4-chloro-3-methanesulfonamido-1-(3-methoxypropyl)-1H-indazol-7-yl]-5-[(3,3-difluoroazetidin-1-yl)methyl]-7-(4,4-difluorocyclohexyl)-4-oxo-3H,4H-pyrido[2,3-d]pyrimidin-2-yl]-2-(3,5-difluorophenyl)ethyl]-2-[(2S,4R)-9-(difluoromethyl)-5,5-difluoro-7,8-diazatricyclo[4.3.0.0^2,4]nona-1(6),8-dien-7-yl]acetamide] | > 20000 pM | 7 pM
COCCCn1nc(NS(C)(=O)=O)c2c(Cl)ccc(-n3c([C@H](Cc4cc(F)cc(F)c4)NC(=O)Cn4nc(C(F)F)c5c4C(F)(F)[C@@H]4C[C@H]54)nc4nc(C5CCC(F)(F)CC5)cc(NCC(C)(C)N5CCCCC5)c4c3=O)c21 (atropisomer, axis not shown; (P)) [Example 539, N-[(1S)-1-[(3P)-3-[4-chloro-3-methanesulfonamido-1-(3-methoxypropyl)-1H-indazol-7-yl]-7-(4,4-difluorocyclohexyl)-5-{[2-methyl-2-(piperidin-1-yl)propyl]amino}-4-oxo-3H,4H-pyrido[2,3-d]pyrimidin-2-yl]-2-(3,5-difluorophenyl)ethyl]-2-[(2S,4R)-9-(difluoromethyl)-5,5-difluoro-7,8-diazatricyclo[4.3.0.0^2,^4]nona-1(6),8-dien-7-yl]acetamide] | > 20000 pM | 6 pM
COCCCn1nc(NS(C)(=O)=O)c2c(Cl)ccc(-n3c([C@H](Cc4cc(F)cc(F)c4)NC(=O)Cn4nc(C(F)F)c5c4C(F)(F)[C@@H]4C[C@H]54)nc4nc(C5CCC(F)(F)CC5)cc(NCCc5ccn(C)n5)c4c3=O)c21 (atropisomer, axis not shown; (P)) [Example 543, N-[(1S)-1-[(3P)-3-[4-chloro-3-methanesulfonamido-1-(3-methoxypropyl)-1H-indazol-7-yl]-7-(4,4-difluorocyclohexyl)-5-{[2-(1-methyl-1H-pyrazol-3-yl)ethyl]amino}-4-oxo-3H,4H-pyrido[2,3-d]pyrimidin-2-yl]-2-(3,5-difluorophenyl)ethyl]-2-[(2S,4R)-9-(difluoromethyl)-5,5-difluoro-7,8-diazatricyclo[4.3.0.0^2,^4]nona-1(6),8-dien-7-yl]acetamide] | > 20000 pM | 14 pM
COCCCn1nc(NS(C)(=O)=O)c2c(Cl)ccc(-n3c([C@H](Cc4cc(F)cc(F)c4)NC(=O)Cn4nc(C(F)F)c5c4C(F)(F)[C@@H]4C[C@H]54)nc4nc(C5CCC(F)(F)CC5)cc(NCC(C)(C)N5CCOCC5)c4c3=O)c21 (atropisomer, axis not shown; (P)) [Example 546, N-[(1S)-1-[(3P)-3-[4-chloro-3-methanesulfonamido-1-(3-methoxypropyl)-1H-indazol-7-yl]-7-(4,4-difluorocyclohexyl)-5-{[2-methyl-2-(morpholin-4-yl)propyl]amino}-4-oxo-3H,4H-pyrido[2,3-d]pyrimidin-2-yl]-2-(3,5-difluorophenyl)ethyl]-2-[(2S,4R)-9-(difluoromethyl)-5,5-difluoro-7,8-diazatricyclo[4.3.0.0^2,^4]nona-1(6),8-dien-7-yl]acetamide] | > 20000 pM | 17 pM
COCCCn1nc(NS(C)(=O)=O)c2c(Cl)ccc(-n3c([C@H](Cc4cc(F)cc(F)c4)NC(=O)Cn4nc(C(F)F)c5c4C(F)(F)[C@@H]4C[C@H]54)nc4nc(C5CCC(F)(F)CC5)cc(NCCC5CCCCC5)c4c3=O)c21 (atropisomer, axis not shown; (P)) [Example 549, N-[(1S)-1-[(3P)-3-[4-chloro-3-methanesulfonamido-1-(3-methoxypropyl)-1H-indazol-7-yl]-5-[(2-cyclohexylethyl)amino]-7-(4,4-difluorocyclohexyl)-4-oxo-3H,4H-pyrido[2,3-d]pyrimidin-2-yl]-2-(3,5-difluorophenyl)ethyl]-2-[(2S,4R)-9-(difluoromethyl)-5,5-difluoro-7,8-diazatricyclo[4.3.0.0^2,^4]nona-1(6),8-dien-7-yl]acetamide] | > 20000 pM | 258 pM
COCCCn1nc(NS(C)(=O)=O)c2c(Cl)ccc(-n3c([C@H](Cc4cc(F)cc(F)c4)NC(=O)Cn4nc(C(F)F)c5c4C(F)(F)[C@@H]4C[C@H]54)nc4nc(C5CCC(F)(F)CC5)cc(NCCC5CCOCC5)c4c3=O)c21 (atropisomer, axis not shown; (P)) [Example 550, N-[(1S)-1-[(3P)-3-[4-chloro-3-methanesulfonamido-1-(3-methoxypropyl)-1H-indazol-7-yl]-7-(4,4-difluorocyclohexyl)-5-{[2-(oxan-4-yl)ethyl]amino}-4-oxo-3H,4H-pyrido[2,3-d]pyrimidin-2-yl]-2-(3,5-difluorophenyl)ethyl]-2-[(2S,4R)-9-(difluoromethyl)-5,5-difluoro-7,8-diazatricyclo[4.3.0.0^2,^4]nona-1(6),8-dien-7-yl]acetamide] | > 20000 pM | 12 pM
COCCCn1nc(NS(C)(=O)=O)c2c(Cl)ccc(-n3c([C@H](Cc4cc(F)cc(F)c4)NC(=O)Cn4nc(C(F)F)c5c4C(F)(F)[C@@H]4C[C@H]54)nc4nc(C5CCC(F)(F)CC5)cc(NCCN5CCC(F)(F)C5)c4c3=O)c21 (atropisomer, axis not shown; (P)) [Example 552, N-[(1S)-1-[(3P)-3-[4-chloro-3-methanesulfonamido-1-(3-methoxypropyl)-1H-indazol-7-yl]-7-(4,4-difluorocyclohexyl)-5-{[2-(3,3-difluoropyrrolidin-1-yl)ethyl]amino}-4-oxo-3H,4H-pyrido[2,3-d]pyrimidin-2-yl]-2-(3,5-difluorophenyl)ethyl]-2-[(2S,4R)-9-(difluoromethyl)-5,5-difluoro-7,8-diazatricyclo[4.3.0.0^2,^4]nona-1(6),8-dien-7-yl]acetamide] | > 20000 pM | 6 pM
COCCCn1nc(NS(C)(=O)=O)c2c(Cl)ccc(-n3c([C@H](Cc4cc(F)cc(F)c4)NC(=O)Cn4nc(C(F)F)c5c4C(F)(F)[C@@H]4C[C@H]54)nc4nc(C5(F)CCC(F)(F)CC5)cc(C)c4c3=O)c21 (atropisomer, axis not shown; (P)) [Example 553, N-[(1S)-1-[(3P)-3-[4-chloro-3-methanesulfonamido-1-(3-methoxypropyl)-1H-indazol-7-yl]-5-methyl-4-oxo-7-(1,4,4-trifluorocyclohexyl)-3H,4H-pyrido[2,3-d]pyrimidin-2-yl]-2-(3,5-difluorophenyl)ethyl]-2-[(2S,4R)-9-(difluoromethyl)-5,5-difluoro-7,8-diazatricyclo[4.3.0.0^2,^4]nona-1(6),8-dien-7-yl]acetamide] | > 20000 pM | 24 pM
Cc1cc(C2(CF)CCC(F)(F)CC2)nc2nc([C@H](Cc3cc(F)cc(F)c3)NC(=O)Cn3nc(C(F)F)c4c3C(F)(F)[C@@H]3C[C@H]43)n(-c3ccc(Cl)c4c(NS(C)(=O)=O)nn(CCN5C[C@H](F)C[C@H](F)C5)c34)c(=O)c12 (atropisomer, axis not shown; (P)) [Example 556, N-[(1S)-1-[(3P)-3-(4-chloro-1-{2-[(3R,5S)-3,5-difluoropiperidin-1-yl]ethyl}-3-methanesulfonamido-1H-indazol-7-yl)-7-[4,4-difluoro-1-(fluoromethyl)cyclohexyl]-5-methyl-4-oxo-3H,4H-pyrido[2,3-d]pyrimidin-2-yl]-2-(3,5-difluorophenyl)ethyl]-2-[(2S,4R)-9-(difluoromethyl)-5,5-difluoro-7,8-diazatricyclo[4.3.0.0^2,^4]nona-1(6),8-dien-7-yl]acetamide] | > 20000 pM | 14 pM
Cc1cc(C2(CF)CCC(F)(F)CC2)nc2nc([C@H](Cc3cc(F)cc(F)c3)NC(=O)Cn3nc(C4CC4)c4c3C[C@@H]3C[C@H]43)n(-c3ccc(Cl)c4c(NS(C)(=O)=O)nn(CCN5C[C@@H](C)O[C@@H](C)C5)c34)c(=O)c12 (atropisomer, axis not shown; (P)) [Example 557, N-[(1S)-1-[(3P)-3-(4-chloro-1-{2-[(2R,6S)-2,6-dimethylmorpholin-4-yl]ethyl}-3-methanesulfonamido-1H-indazol-7-yl)-7-[4,4-difluoro-1-(fluoromethyl)cyclohexyl]-5-methyl-4-oxo-3H,4H-pyrido[2,3-d]pyrimidin-2-yl]-2-(3,5-difluorophenyl)ethyl]-2-[(2S,4S)-9-cyclopropyl-7,8-diazatricyclo[4.3.0.0^2,^4]nona-1(6),8-dien-7-yl]acetamide] | > 20000 pM | 7 pM
COCCCn1nc(NS(C)(=O)=O)c2c(Cl)ccc(-n3c([C@H](Cc4cc(F)cc(F)c4)NC(=O)Cn4nc(C(F)F)c5c4C(F)(F)[C@@H]4C[C@H]54)nc4nc(C5CCC(F)(F)CC5)cc(NCCC(C)(C)OC)c4c3=O)c21 (atropisomer, axis not shown; (P)) [Example 565, N-[(1S)-1-[(3P)-3-[4-chloro-3-methanesulfonamido-1-(3-methoxypropyl)-1H-indazol-7-yl]-7-(4,4-difluorocyclohexyl)-5-[(3-methoxy-3-methylbutyl)amino]-4-oxo-3H,4H-pyrido[2,3-d]pyrimidin-2-yl]-2-(3,5-difluorophenyl)ethyl]-2-[(2S,4R)-9-(difluoromethyl)-5,5-difluoro-7,8-diazatricyclo[4.3.0.0^2,^4]nona-1(6),8-dien-7-yl]acetamide] | > 20000 pM | 11 pM
